In patent publication US9339471B2, “Long acting dual release product containing carbinoxamine and pseudoephedrine” (E5 PHARMA, LLC, priority 2007, dated 2016):

How the values were obtained:
[1] = Single dose fasted bioavailability study, 4 mg immediate release carbinoxamine maleate tablet; assay type: in vivo; design: Plasma concentration of carbinoxamine: unit not given here; conditions: for Cmax / Tmax / half-life / AUC(0-t) / MRT: 4 mg
Excerpt: (§1) A single dose fasted bioavailability study was undertaken using four milligram immediate release carbinoxamine maleate tablets formulated in an immediate release format. Samples were taken over a forty eight hours period after administration of the drug, and the first meal was allowed to be ingested four hours after administration. Table 3 compares the observed pharmacokinetics from this test to those observed by Stockis et al. in Arzneim.-Forsch 1992, 42(12):1478-81, and Stockis et al. in Arzneim.-Forsch 1995, 45(9) 1009-1012.
FIG. 1 is a mean plasma concentration-time profile of the carbinoxamine after administering the immediate release tablet in the fasted state from time 0 to time 48 hours. Graph (A) is the linear ordinate; graph (B) is the log-linear ordinate.

[2] = Literature 1 (Stockis et al. 1992): bioavailability of 8 mg aqueous solution and 8 mg retard capsule of carbinoxamine; conditions: in vivo, normalized to 4 mg dose
Description: The pharmacokinetics of carbinoxamine maleate have been reported in the literature. Stockis et al., Arzneim.-Forsch 1992, 42(12):1478-81, studied the bioavailability of an 8 mg aqueous solution of carbinoxamine and an 8 mg retard capsule of carbinoxamine.
as §1

[3] = human, plasma, po, Our study, Tablet 4 mg
[4] = human, plasma, po, fasted, Mean
[5] = human, plasma, po, fasted, subject 101
[6] = human, plasma, po, fasted, subject 102
[7] = human, plasma, po, fasted, subject 103
[8] = po, Literature 1, Retard capsule 8 mg
[9] = Literature 1, Aqueous solution 8 mg

Q: For `CN(C)CCOC(c1ccc(Cl)cc1)c1ccccn1` (stereo not drawn) [carbinoxamine, 2-[(4-chlorophenyl)-2-pyridinylmethoxy]-N,N-dimethylethanamine (Z)-2-butenedioate (1:1)], which “Plasma concentration of carbinoxamine” value ([1]; fasted, 0 h, subject 101T) is on record?
A: blq

Q: And the “Plasma concentration of carbinoxamine” value ([1]; fasted, 0 h, subject 102T)?
A: blq

Q: And the “Plasma concentration of carbinoxamine” value ([1]; fasted, 0 h, subject 103T)?
A: blq

Q: What about the “Plasma concentration of carbinoxamine” value ([1]; fasted, 0.5 h, T-Mean) of the same compound?
A: 315.41

Q: What about the “Plasma concentration of carbinoxamine” value ([1]; fasted, 0.5 h, subject 101T) of the same compound?
A: 434.78

Q: And the “Plasma concentration of carbinoxamine” value ([1]; fasted, 0.5 h, subject 102T)?
A: 459.42

Q: What about the “Plasma concentration of carbinoxamine” value ([1]; fasted, 0.5 h, subject 103T) of the same compound?
A: 52.04

Q: And the “Plasma concentration of carbinoxamine” value ([1]; fasted, 1 h, T-Mean)?
A: 4153.31

Q: And the “Plasma concentration of carbinoxamine” value ([1]; fasted, 1 h, subject 101T)?
A: 5908.19

Q: And the “Plasma concentration of carbinoxamine” value ([1]; fasted, 1 h, subject 102T)?
A: 4949.36

Q: And the “Plasma concentration of carbinoxamine” value ([1]; fasted, 1 h, subject 103T)?
A: 1602.38

Q: What about the “Plasma concentration of carbinoxamine” value ([1]; fasted, 2 h, T-Mean) of the same compound?
A: 6406.31

Q: And the “Plasma concentration of carbinoxamine” value ([1]; fasted, 2 h, subject 101T)?
A: 6488.14

Q: And the “Plasma concentration of carbinoxamine” value ([1]; fasted, 2 h, subject 102T)?
A: 5684.72

Q: What about the “Plasma concentration of carbinoxamine” value ([1]; fasted, 2 h, subject 103T) of the same compound?
A: 7046.07

Q: And the “Plasma concentration of carbinoxamine” value ([1]; fasted, 3 h, T-Mean)?
A: 7062.72

Q: And the “Plasma concentration of carbinoxamine” value ([1]; fasted, 3 h, subject 101T)?
A: 8022.80

Q: And the “Plasma concentration of carbinoxamine” value ([1]; fasted, 3 h, subject 102T)?
A: 6592.16

Q: What about the “Plasma concentration of carbinoxamine” value ([1]; fasted, 3 h, subject 103T) of the same compound?
A: 6573.21

Q: What about the “Plasma concentration of carbinoxamine” value ([1]; fasted, 4 h, T-Mean) of the same compound?
A: 6647.30

Q: And the “Plasma concentration of carbinoxamine” value ([1]; fasted, 4 h, subject 101T)?
A: 7860.85

Q: And the “Plasma concentration of carbinoxamine” value ([1]; fasted, 4 h, subject 102T)?
A: 6236.91

Q: What about the “Plasma concentration of carbinoxamine” value ([1]; fasted, 4 h, subject 103T) of the same compound?
A: 5854.14

Q: And the “Plasma concentration of carbinoxamine” value ([1]; fasted, 5 h, T-Mean)?
A: 6515.83

Q: And the “Plasma concentration of carbinoxamine” value ([1]; fasted, 5 h, subject 101T)?
A: 7726.57

Q: And the “Plasma concentration of carbinoxamine” value ([1]; fasted, 5 h, subject 102T)?
A: 6649.03

Q: What about the “Plasma concentration of carbinoxamine” value ([1]; fasted, 5 h, subject 103T) of the same compound?
A: 5171.89

Q: What about the “Plasma concentration of carbinoxamine” value ([1]; fasted, 6 h, T-Mean) of the same compound?
A: 5903.78

Q: What about the “Plasma concentration of carbinoxamine” value ([1]; fasted, 6 h, subject 101T) of the same compound?
A: 7251.86

Q: What about the “Plasma concentration of carbinoxamine” value ([1]; fasted, 6 h, subject 102T) of the same compound?
A: 6097.18

Q: And the “Plasma concentration of carbinoxamine” value ([1]; fasted, 6 h, subject 103T)?
A: 4362.30

Q: What about the “Plasma concentration of carbinoxamine” value ([1]; fasted, 8 h, T-Mean) of the same compound?
A: 5510.70

Q: And the “Plasma concentration of carbinoxamine” value ([1]; fasted, 8 h, subject 101T)?
A: 6849.38

Q: And the “Plasma concentration of carbinoxamine” value ([1]; fasted, 8 h, subject 102T)?
A: 5707.15

Q: And the “Plasma concentration of carbinoxamine” value ([1]; fasted, 8 h, subject 103T)?
A: 3975.57

Q: And the “Plasma concentration of carbinoxamine” value ([1]; fasted, 12 h, T-Mean)?
A: 4292.77

Q: And the “Plasma concentration of carbinoxamine” value ([1]; fasted, 12 h, subject 101T)?
A: 5821.63

Q: And the “Plasma concentration of carbinoxamine” value ([1]; fasted, 12 h, subject 102T)?
A: 4387.40

Q: And the “Plasma concentration of carbinoxamine” value ([1]; fasted, 12 h, subject 103T)?
A: 2669.29

Q: What about the “Plasma concentration of carbinoxamine” value ([1]; fasted, 24 h, T-Mean) of the same compound?
A: 2144.60

Q: And the “Plasma concentration of carbinoxamine” value ([1]; fasted, 24 h, subject 101T)?
A: 2632.77

Q: What about the “Plasma concentration of carbinoxamine” value ([1]; fasted, 24 h, subject 102T) of the same compound?
A: 2395.51

Q: And the “Plasma concentration of carbinoxamine” value ([1]; fasted, 24 h, subject 103T)?
A: 1405.53

Q: And the “Plasma concentration of carbinoxamine” value ([1]; fasted, 36 h, T-Mean)?
A: 1371.30

Q: And the “Plasma concentration of carbinoxamine” value ([1]; fasted, 36 h, subject 101T)?
A: 1541.30

Q: And the “Plasma concentration of carbinoxamine” value ([1]; fasted, 36 h, subject 102T)?
A: 1516.80

Q: What about the “Plasma concentration of carbinoxamine” value ([1]; fasted, 36 h, subject 103T) of the same compound?
A: 1055.79

Q: And the “Plasma concentration of carbinoxamine” value ([1]; fasted, 48 h, T-Mean)?
A: 876.29

Q: And the “Plasma concentration of carbinoxamine” value ([1]; fasted, 48 h, subject 101T)?
A: 1102.33

Q: What about the “Plasma concentration of carbinoxamine” value ([1]; fasted, 48 h, subject 102T) of the same compound?
A: 1003.18

Q: What about the “Plasma concentration of carbinoxamine” value ([1]; fasted, 48 h, subject 103T) of the same compound?
A: 528.37

Q: What about the Cmax [1, 3] of the same compound?
A: 7.2 ng/mL

Q: And the Tmax [1, 3]?
A: 3.3 h

Q: And the half-life [1, 3]?
A: 18.3 h

Q: What about the AUC(0-t) [1, 4] of the same compound?
A: 161 ng·h/mL

Q: What about the Cmax [1, 4] of the same compound?
A: 7.24 ng/mL

Q: What about the MRT [1, 4] of the same compound?
A: 24.1 h

Q: What about the Tmax [1, 4] of the same compound?
A: 3.33 h

Q: What about the half-life [1, 4] of the same compound?
A: 18.4 h

Q: And the AUC(0-t) ([1]; human, plasma, po, fasted, Mean, first AUC column)?
A: 137 ng·h/mL

Q: What about the Cmax [1, 5] of the same compound?
A: 8.02 ng/mL

Q: And the MRT [1, 5]?
A: 24.7 h

Q: What about the Tmax [1, 5] of the same compound?
A: 3 h

Q: And the half-life [1, 5]?
A: 19.1 h

Q: And the AUC(0-t) ([1]; human, plasma, po, fasted, subject 101, first AUC column)?
A: 169 ng·h/mL

Q: And the AUC(0-t) ([1]; human, plasma, po, fasted, subject 101, second AUC column)?
A: 200 ng·h/mL

Q: What about the Cmax [1, 6] of the same compound?
A: 6.65 ng/mL

Q: And the MRT [1, 6]?
A: 25.9 h

Q: And the Tmax [1, 6]?
A: 5 h

Q: What about the half-life [1, 6] of the same compound?
A: 19.1 h

Q: And the AUC(0-t) ([1]; human, plasma, po, fasted, subject 102, first AUC column)?
A: 143 ng·h/mL

Q: And the AUC(0-t) ([1]; human, plasma, po, fasted, subject 102, second AUC column)?
A: 171 ng·h/mL

Q: What about the Cmax [1, 7] of the same compound?
A: 7.05 ng/mL

Q: And the MRT [1, 7]?
A: 21.7 h

Q: What about the Tmax [1, 7] of the same compound?
A: 2 h

Q: And the half-life [1, 7]?
A: 16.8 h

Q: What about the AUC(0-t) ([1]; human, plasma, po, fasted, subject 103, first AUC column) of the same compound?
A: 98.4 ng·h/mL

Q: And the AUC(0-t) ([1]; human, plasma, po, fasted, subject 103, second AUC column)?
A: 111 ng·h/mL

Q: And the AUC ([1]; human, plasma, po, Our study, Tablet 4 mg, read-out: AUC0-* ·)?
A: 161 ng·h/mL

Q: What about the AUC(0-t) ([1]; plasma, po, Our study, Tablet 4 mg, AUC0-48) of the same compound?
A: 137 ng·h/mL

Q: What about the AUC(0-t) [2, 8] of the same compound?
A: 119 ng·h/mL

Q: And the Cmax [2, 8]?
A: 8.45 ng/mL

Q: What about the AUC(0-t) [2, 9] of the same compound?
A: 143 ng·h/mL

Q: And the Cmax [2, 9]?
A: 12 ng/mL
